Measured values as given in PubChem BioAssay AID179 (DTP/NCI, 2004).
Several values for one entry are separate records, joined by “and”; a condition that tells them apart may be missing. Equal values may be shown once. Activity calls are given as the source filed them.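 The calls were made as follows: active = compounds giving half or more protection of infected cells from virus-caused growth loss, again on retest; inactive = the rest.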 Where a SMILES comes first, the peptide text is derived from it. The star is where a group is joined. Boc = CC(C)(C)OC(=O)*

Test system: CEM cells HIV-1 protection, formazan growth assay
Assay: NCI AIDS Antiviral Assay
Conditions: for IC50: measured here: growth of uninfected CEM cells
How it was run: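 Protection of CEM cells against HIV-1 was scored from cell growth (soluble formazan) across five concentrations, with parallel uninfected cells. Lack of protection may reflect toxicity.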

Q: Which results are given for `Cc1c(CCCl)c(N=[N+]=[N-])n2c(nc3ccccc32)c1C#N`?
A: EC50: > 200 µM; IC50: 11 µM

Q: What does the source list for `Cc1nc2cc(C(=O)NC=O)c3n[nH]nc3c2n1C`?
A: EC50: > 200 µM; IC50: > 200 µM

Q: For `O=c1c2cccnc2ncn1CCCN1CCCC1`, which outcome is on record?
A: inactive

Q: Which results are given for `NNC(=O)C(=O)N/N=C(\CCCC(=O)Nc1ccc(Cl)cc1)CC(=O)c1ccc(F)cc1`?
A: EC50: > 269 µM; IC50: > 269 µM

Q: How did the outcome turn out when `Cc1ccc(C(=O)NCCCl)cc1C` was run?
A: inactive

Q: `N#CC(C(=O)C(=O)Nc1ccc(Cl)c(Cl)c1)c1ccc(Cl)cc1` (stereo unspecified) was tested. Which EC50 did it give?
A: > 135 µM

Q: What about the IC50 of the same molecule?
A: 107 µM

Q: What does the source list for `O=C(Nc1c(Cl)cc([N+](=O)[O-])cc1Cl)/C(=N\Nc1cccc(Cl)c1)c1c(O)c2ccccc2oc1=O`?
A: EC50: > 24.5 µM; IC50: > 24.5 µM

Q: How did the EC50 turn out when `Cc1ccc(S(=O)(=O)/N=C(\N)N(C)N=O)cc1` was run?
A: > 200 µM

Q: And the IC50?
A: 63.1 µM

Q: `O=C(O)C1CCC(c2ccc(F)cc2)=N1` (stereo unspecified) was tested. Which EC50 did it give?
A: > 200 µM

Q: What about the IC50 of the same molecule?
A: > 200 µM

Q: Which outcome does the source give for `CCC1(c2c(F)c(F)c(N)c(F)c2F)CCC(=O)NC1=O` (stereo unspecified) here?
A: inactive

Q: Which results are given for `COC(=O)c1cc2c(n1S(=O)(=O)c1ccc(C)cc1)C(=O)C(=O)c1[nH]cc(C(=O)OCc3ccccc3)c1-2`?
A: EC50: > 200 µM; IC50: 0.38 µM

Q: With `O=C1NC(O)c2cc(Cl)cc(Cl)c2O1` (stereo unspecified) as the molecule, how does the outcome read?
A: inactive

Q: With `Cc1ccc(SC(C)/C=C/NNC2=NC(c3ccccc3)C(c3ccccc3)=NN2)cc1` (stereo unspecified) as the molecule, how does the EC50 read?
A: > 22.4 µM

Q: And the IC50?
A: > 22.4 µM

Q: With `O=Nc1ccc(O)cc1Cc1ccccc1` as the molecule, how does the EC50 read?
A: > 200 µM

Q: And the IC50?
A: 3.63 µM

Q: `CC12CP(=O)(O)CC1C2(Cl)Cl` (stereo unspecified) was tested. Which EC50 did it give?
A: > 200 µM

Q: What about the IC50 of the same molecule?
A: > 200 µM

Q: With `O=C1C2=Cc3ccccc3CCN2c2ccc([N+](=O)[O-])cc21` as the molecule, how does the EC50 read?
A: > 200 µM

Q: What about the IC50 of the same molecule?
A: 166 µM

Q: What does the source list for `c1cc2c(cc1C1OCC3C(c4ccc5c(c4)OCO5)OCC13)OCO2` (stereo unspecified)?
A: EC50: > 100 µM; IC50: 58.9 µM

Q: For `O=C(O)CCS(=O)(=O)O`, which EC50 is on record?
A: > 200 µM

Q: And the IC50?
A: > 200 µM

Q: For `O=C1Cc2cccc(=O)c(O)c2C(=O)O1`, which EC50 is on record?
A: > 1200 µM

Q: And the IC50?
A: 282 µM

Q: For `CCC1=C2C(=O)c3ccccc3C2=C(C)S(=O)(=O)O1`, which EC50 is on record?
A: 257 µM

Q: What about the IC50 of the same molecule?
A: 263 µM

Q: What does the source list for `O=S1(=O)CC2(N3CCCC3)CCCCC21` (stereo unspecified)?
A: EC50: > 1100 µM; IC50: 617 µM

Q: Which EC50 does the source give for `NC(=O)c1ncn(CC2(CO)CCC2)c1N` here?
A: > 200 µM

Q: And the IC50?
A: > 200 µM

Q: With `Nc1nc(N)nc(Nc2ccc([As](=O)(O)O)cc2)n1` as the molecule, how does the EC50 read?
A: > 21.9 µM

Q: What about the IC50 of the same molecule?
A: > 21.9 µM

Q: For `CCN(CC)CCOc1ccc(C(C#N)=C(c2ccccc2)c2ccccc2)cc1`, which EC50 is on record?
A: > 200 µM

Q: And the IC50?
A: 2.57 µM

Q: Which outcome does the source give for `CC(=O)c1nc(C#N)c(N)o1` here?
A: inactive

Q: Which outcome does the source give for `c1ccc2c(c1)OCOc1ccccc1OCO2` here?
A: inactive

Q: `C[C@@H]1CCC(=O)C(C(=O)CC2CC(=O)NC2=O)C1` (stereo partly specified) was tested. Which EC50 did it give?
A: > 200 µM

Q: What about the IC50 of the same molecule?
A: > 200 µM

Q: With `O=C1CNCCCN2CCN(CCCNCC(=O)Nc3ccc(cc3)S(=O)(=O)c3ccc(cc3)NC(=O)CNCCCN3CCN(CCCNCC(=O)Nc4ccc(cc4)S(=O)(=O)c4ccc(cc4)N1)CC3)CC2` as the molecule, how does the EC50 read?
A: > 50.1 µM

Q: And the IC50?
A: > 50.1 µM

Q: How did the outcome turn out when `Nc1nc2c(c(-c3ccccc3Cl)n1)COC/C2=C\c1ccccc1Cl` was run?
A: inactive

Q: `C=CCn1c(-c2ccc(Cl)cc2)csc1=Nc1ccccc1OC` was tested. Which EC50 did it give?
A: > 200 µM

Q: And the IC50?
A: > 200 µM

Q: For `CCCCCCCCCCCc1noc2c1C(=O)C(O)CC2` (stereo unspecified), which outcome is on record?
A: inactive

Q: `COc1cc(C(=O)CC(O)(C(F)(F)F)C(F)(F)F)cc(OC)c1OC` was tested. Which EC50 did it give?
A: > 200 µM

Q: What about the IC50 of the same molecule?
A: > 200 µM

Q: `CCOC(=O)c1c(N2CCOCC2)[nH]c(=O)c(C(c2cccs2)c2c(O)c(C(=O)OCC)c(N3CCOCC3)[nH]c2=O)c1O` was tested. Which EC50 did it give?
A: > 200 µM

Q: And the IC50?
A: > 200 µM

Q: Which EC50 does the source give for `COC(=O)CC=C(c1cc(Cl)c(OC)c(C(=O)OC)c1)c1cc(Cl)c(OC)c(C(=O)OC)c1` here?
A: > 200 µM

Q: And the IC50?
A: 41.7 µM

Q: Which results are given for `Nc1sc(=S)nc2sc(Nc3ccccc3)nc12`?
A: EC50: > 427 µM; IC50: > 427 µM

Q: Which EC50 does the source give for `CCN(CC)CCNc1ccc([N+](=O)[O-])c2nc3ccccc3c(N)c12` here?
A: > 100 µM

Q: And the IC50?
A: 0.575 µM

Q: For `Cc1cc(S(=O)(=O)NC2=NCCN2Cc2ccccc2)c(S)cc1Cl`, which EC50 is on record?
A: > 200 µM

Q: What about the IC50 of the same molecule?
A: 58.9 µM

Q: For `NC(=O)c1c[se]c(C2OC(COP(=O)(O)CP(=O)(O)OCC3OC(n4cnc5c(N)ncnc54)C(O)C3O)C(O)C2O)n1` (stereo unspecified), which EC50 is on record?
A: > 100 µM

Q: What about the IC50 of the same molecule?
A: 16.6 µM

Q: What does the source list for `CC(=O)NC1C(OCc2ccccc2)OC(CO)C(O)C1OC(C)C(=O)NC(C)C(=O)NC(CCC(=O)NCCCNc1c2ccccc2nc2cccc([N+](=O)[O-])c12)C(N)=O` (stereo unspecified)?
A: EC50: > 100 µM; IC50: 1.15 µM

Q: With `ClCc1ccc2ccc3ccc(CCl)nc3c2n1` as the molecule, how does the EC50 read?
A: > 200 µM

Q: And the IC50?
A: 1.51 µM

Q: Which EC50 does the source give for `Cc1ccccc1C1OC(=O)c2ccccc21` (stereo unspecified) here?
A: > 158 µM

Q: What about the IC50 of the same molecule?
A: 97.7 µM

Q: What does the source list for `COc1cc2c(cc1O)C1Cc3cc(OC)c(OC)cc3C(C2)N1C` (stereo unspecified)?
A: EC50: > 39.8 µM; IC50: > 39.8 µM

Q: With `CN(C)c1nc(N(C)C)nc(N(C)CN(C)c2ccccc2)n1` as the molecule, how does the EC50 read?
A: > 100 µM

Q: And the IC50?
A: > 100 µM

Q: Which EC50 does the source give for `Cc1ccnc(SC(F)(F)c2nc3ccccc3o2)n1` here?
A: 0.263 µM

Q: What about the IC50 of the same molecule?
A: 2 µM

Q: For `COc1cc(CC(=O)O)c([N+](=O)[O-])cc1OC`, which EC50 is on record?
A: > 1020 µM

Q: And the IC50?
A: 891 µM

Q: `N=S(c1ccccc1[N+](=O)[O-])c1ccccc1[N+](=O)[O-]` was tested. Which EC50 did it give?
A: > 200 µM

Q: What about the IC50 of the same molecule?
A: 0.631 µM and 0.589 µM

Q: What does the source list for `CC(NC(=O)C(NC(=O)OC(C)(C)C)C(C)C)C(=O)NCC(=O)O` (stereo not drawn) (Boc-Val-Ala-Gly-OH; configuration not given here)?
A: EC50: > 200 µM; IC50: > 200 µM

Q: Which results are given for `O=C1c2cc(Oc3ccccc3)c(S(=O)(=O)O)c(S(=O)(=O)O)c2C(=O)c2c(O)ccc(O)c21`?
A: EC50: > 200 µM; IC50: 72.4 µM

Q: Which EC50 does the source give for `COC(=O)C1=C(C(=O)[C@H](Cc2ccccc2)NC(=O)c2ccccc2)CCC1` here?
A: > 95.5 µM

Q: And the IC50?
A: 89.1 µM

Q: Which outcome does the source give for `O=c1c2ccccc2c(=O)c2cc3c(=O)n(-c4ccccc4)c(=O)c3cc12` here?
A: inactive

Q: Which EC50 does the source give for `O=C1Nc2ccccc2Oc2ccccc21` here?
A: 51.3 µM

Q: And the IC50?
A: > 200 µM

Q: Which EC50 does the source give for `O=C(c1ccccc1)c1nc2ccc(Cl)cc2c2c1CCCO2` here?
A: > 16.2 µM

Q: What about the IC50 of the same molecule?
A: > 16.2 µM

Q: `O=c1[nH]c(=O)c2c3n(cc2[nH]1)CCCCC3` was tested. Which EC50 did it give?
A: > 200 µM

Q: And the IC50?
A: > 200 µM

Q: For `COc1ccc(CC(COS(=O)(=O)c2ccc(C)cc2)NS(=O)(=O)c2ccc(C)cc2)cc1` (stereo unspecified), which EC50 is on record?
A: > 200 µM

Q: What about the IC50 of the same molecule?
A: 26.9 µM

Q: `C/C=C1\CN(C)C2Cc3c([nH]c4ccccc34)[C@H](c3c(OC)ccc4c5c([nH]c34)C3(C(=O)OC)CC4CC(CC)C3N(CC5)C4)CC1C2C(=O)OC` (stereo partly specified) was tested. Which outcome did it give?
A: inactive

Q: Which results are given for `CC1=NN(C(=O)CC(=O)N(C(=O)c2ccccc2Cl)c2ccc(C)cc2)C(=O)C1N=Nc1ccc([N+](=O)[O-])cc1` (stereo unspecified)?
A: EC50: > 12.9 µM; IC50: > 12.9 µM

Q: With `N.N.N.N.[Co+3].[O-][Cl+3]([O-])([O-])[O-].[OH3+].[OH3+]` as the molecule, how does the outcome read?
A: inactive

Q: `Cn1c(=O)c2nc(-c3ccccc3)nnc2n(CCO)c1=O` was tested. Which EC50 did it give?
A: > 200 µM

Q: What about the IC50 of the same molecule?
A: 41.7 µM

Q: `CC(C)(C)OC(=O)NCC(=O)NC1c2ccsc2/C(=N/O)[C@H]1O` (stereo partly specified) was tested. Which EC50 did it give?
A: > 200 µM

Q: And the IC50?
A: > 200 µM

Q: For `C=CC(C1=CC(=O)C(OC)=CC1=O)c1ccc(OC)cc1` (stereo unspecified), which outcome is on record?
A: inactive

Q: For `CC(NC(C)(C)C)C(=O)c1cccc(Cl)c1` (stereo unspecified), which EC50 is on record?
A: > 200 µM

Q: What about the IC50 of the same molecule?
A: > 200 µM

Q: How did the EC50 turn out when `C=C(CCCCCCCCC)CC(=O)SCCNC(=O)CCNC(=O)C(O)C(C)(C)COP(=O)(O)OP(=O)(O)OCC1OC(n2cnc3c(N)ncnc32)C(O)C1OP(=O)(O)O` (stereo unspecified) was run?
A: > 200 µM

Q: And the IC50?
A: 72.4 µM

Q: Which EC50 does the source give for `CCc1[nH]c(=O)c2oc3cc4ccccc4cc3c2c1C(=O)O` here?
A: > 200 µM

Q: What about the IC50 of the same molecule?
A: > 200 µM

Q: Which EC50 does the source give for `CN(C)C=NCCN1CCOCC1` here?
A: > 200 µM

Q: What about the IC50 of the same molecule?
A: > 200 µM
